Measurements from patent US7211576B2, “Diaminothiazoles” (Hoffmann-La Roche Inc., priority 2004, dated 2007).

Tests used:
human cyclin D1-CDK4 = human cyclin D1-CDK4 (Homo sapiens, UniProt P11802); assay: FlashPlate kinase assay, cyclin D1-CDK4; format: biochemical; details: Rb protein substrate, 1 μM ATP, 33P-ATP, 30 minutes room temperature; read-out: CDK4 IC50
human cyclin B-CDK1 = human cyclin B-CDK1 (Homo sapiens, UniProt P06493); assay: FlashPlate kinase assay, cyclin B-CDK1; format: biochemical; details: Rb protein substrate, 1 μM ATP, 33P-ATP, 30 minutes room temperature
human cyclin E-CDK2 = human cyclin E-CDK2 (Homo sapiens, UniProt P24941); assay: FlashPlate kinase assay, cyclin E-CDK2; format: biochemical; details: Rb protein substrate, 1 μM ATP, 33P-ATP, 30 minutes room temperature
[1] = system: HCT116, a colorectal carcinoma cell line; assay: Tetrazolium dye (MTT) proliferation assay; format: cell-based; details: Homo sapiens, HCT-116; HCT116 cells, inhibition of cell proliferation
Procedure: Proliferation was evaluated by the tetrazolium dye assay according to the procedure of Denizot and Lang (Denizot, F. and Lang, R. J Immunol Methods 1986, 89, 271–277). The cell line used was HCT116, a colorectal carcinoma cell line obtained from the American Type Cell Culture Collection (ATCC; Rockville, Md.). The cells were grown in McCoy's 5A medium supplemented with 10% FCS and L-glutamine.
Cells were plated at the appropriate seeding density to give logarithmic growth over the course of the assay in a 96-well tissue culture plate. Plates were incubated overnight at 37° C. in a humidified incubator with 5% CO2. The next day, test compounds were serially diluted to four times the final concentration in the appropriate medium containing 1.2% DMSO. One-fourth final volume of each dilution was added in duplicate to the plates containing cells. The same volume of 1.2% DMSO in medium was added to a row of “control wells” such that the final concentration of DMSO in each well was 0.3%. Wells to which no cells were added served as the “blank.” Wells to which no inhibitor was added served as “no inhibitor control.” The plates were) returned to the incubator, and at set time points (determined by their growth curves) plates were analyzed as described below.
3-(4,5-dimethylthiazole-2-yl)-2,5-diphenyl-2H-tetrazolium bromide (thiazolyl blue; MTT; Sigma) was added to each well to yield a final concentration of 1 mg/ml. Plates were returned to the incubator for 2.5–3 hours at 37° C. The MTT-containing medium was removed and the resulting formazan metabolite was solubilized in 100% ethanol with shaking for 15 minutes at room temperature. Absorbance readings were taken in a microtiter plate reader (Dynatech and Molecular Devices plate readers were used interchangeably) at a wavelength of 570 nm with a 650 nm reference. Percent inhibition (% INH) is calculated by subtracting the absorbance of the blank well from all wells, then subtracting the ratio of the average absorbance of each test duplicate (SAVE) by the average of the controls (CAVE) from 1.00. The final number is then multiplied by 100 (% INH=(1.00−SAVE/CAVE)×100). The concentration at which 50% inhibition of cell proliferation is obtained (the IC50) is determined from the linear regression of a plot of the logarithm of the concentration versus percent inhibition.

Chain of human cyclin B-CDK1 (P06493 whole entry): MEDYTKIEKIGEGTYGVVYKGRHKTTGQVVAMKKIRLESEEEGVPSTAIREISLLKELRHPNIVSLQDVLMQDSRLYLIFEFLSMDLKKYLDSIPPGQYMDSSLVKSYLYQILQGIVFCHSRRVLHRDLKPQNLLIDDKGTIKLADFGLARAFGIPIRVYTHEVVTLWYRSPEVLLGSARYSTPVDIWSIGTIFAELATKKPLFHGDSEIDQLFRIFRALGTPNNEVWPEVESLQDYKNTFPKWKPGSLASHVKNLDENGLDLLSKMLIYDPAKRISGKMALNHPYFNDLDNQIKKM
Chain of human cyclin B-CDK1 (P14635 whole entry partner): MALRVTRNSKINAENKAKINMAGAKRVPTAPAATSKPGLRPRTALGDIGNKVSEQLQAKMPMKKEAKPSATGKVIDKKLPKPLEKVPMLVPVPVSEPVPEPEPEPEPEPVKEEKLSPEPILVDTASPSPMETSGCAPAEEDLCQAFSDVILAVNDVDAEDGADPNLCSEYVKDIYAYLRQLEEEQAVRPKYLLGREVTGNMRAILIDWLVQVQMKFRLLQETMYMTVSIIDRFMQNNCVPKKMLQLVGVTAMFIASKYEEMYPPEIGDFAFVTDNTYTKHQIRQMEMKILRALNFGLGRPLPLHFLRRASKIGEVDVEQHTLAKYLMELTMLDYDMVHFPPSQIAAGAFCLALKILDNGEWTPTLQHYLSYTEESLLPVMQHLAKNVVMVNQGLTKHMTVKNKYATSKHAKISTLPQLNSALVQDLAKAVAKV
Chain of human cyclin D1-CDK4 (P11802 whole entry): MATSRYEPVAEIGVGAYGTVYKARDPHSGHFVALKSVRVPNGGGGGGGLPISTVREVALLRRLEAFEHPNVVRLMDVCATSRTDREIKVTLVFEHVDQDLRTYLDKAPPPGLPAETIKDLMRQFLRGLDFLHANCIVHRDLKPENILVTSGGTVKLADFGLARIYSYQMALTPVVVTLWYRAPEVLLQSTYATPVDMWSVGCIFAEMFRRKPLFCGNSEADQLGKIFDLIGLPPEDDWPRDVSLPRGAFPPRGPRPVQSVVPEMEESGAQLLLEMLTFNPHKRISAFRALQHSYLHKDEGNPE
Chain of human cyclin D1-CDK4 (P24385 whole entry partner): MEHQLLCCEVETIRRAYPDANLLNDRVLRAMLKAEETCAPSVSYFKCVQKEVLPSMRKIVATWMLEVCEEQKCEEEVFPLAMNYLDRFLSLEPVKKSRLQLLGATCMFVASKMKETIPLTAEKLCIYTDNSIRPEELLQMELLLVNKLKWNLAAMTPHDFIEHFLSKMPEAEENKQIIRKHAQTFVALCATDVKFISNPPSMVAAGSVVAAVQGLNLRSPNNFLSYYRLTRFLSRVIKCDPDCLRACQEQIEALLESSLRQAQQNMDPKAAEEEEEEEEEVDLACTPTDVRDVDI

Row | SMILES | IC50 (human cyclin D1-CDK4) [nM] | IC50 (human cyclin B-CDK1) [nM] | IC50 (human cyclin E-CDK2) [nM] | IC50 [1] [nM]
1 | Nc1nc(Nc2ccc(N3CCC(N4CCCC(O)C4)CC3)cc2)sc1C(=O)c1ccc(O)cc1 (stereo not shown) [Example 40, {4-Amino-2-[4-(3-hydroxy-[1,4′]bipiperidinyl-1′-yl)-phenylamino]-thiazol-5-yl}-(4-hydroxy-phenyl)-methanone] | 52 | 640 | 5110 | 9480
2 | CN(C)C1CCN(c2ccc(Nc3nc(N)c(C(=O)c4cccc(F)c4)s3)cc2)CC1 [Example 41, {4-Amino-2-[4-(4-dimethylamino-piperidin-1-yl)-phenylamino]-thiazol-5-yl}-(3-fluoro-phenyl)-methanone] | 2 | 268 | 888 | 1410
3 | CN(C)C1CCN(c2ccc(Nc3nc(N)c(C(=O)c4ccc5c(c4)OCO5)s3)cc2)CC1 [Example 43, {4-Amino-2-[4-(4-dimethylamino-piperidin-1-yl)-phenylamino]-thiazol-5-yl}-benzo[1,3]dioxol-5-yl-methanone] | 7 | 500 | 3500 | 1610
4 | CN(C)C1CCN(c2ccc(Nc3nc(N)c(C(=O)c4ccc5c(c4)OCCO5)s3)cc2)CC1 [Example 44, {4-Amino-2-[4-(4-dimethylamino-piperidin-1-yl)-phenylamino]-thiazol-5-yl}-(2,3-dihydro-benzo[1,4]dioxin-6-yl)-methanone] | 16 | 1250 | 5130 | 1720
5 | COc1cccc(C(=O)c2sc(Nc3ccc(N4CCC(N(C)C)CC4)cc3)nc2N)c1 [Example 45, {4-Amino-2-[4-(4-dimethylamino-piperidin-1-yl)-phenylamino]-thiazol-5-yl}-(3-methoxy-phenyl)-methanone] | 5 | 2440 | 5160 | 2460
6 | CN(C)C1CCN(c2ccc(Nc3nc(N)c(C(=O)c4cccc(O)c4)s3)cc2)CC1 [Example 50, {4-Amino-2-[4-(4-dimethylamino-piperidin-1-yl)-phenylamino]-thiazol-5-yl}-(3-hydroxy-phenyl)-methanone] | 7 | 810 | 2790 | 3120
7 | N#Cc1cccc(C(=O)c2sc(Nc3ccc(N4CCC(N5CCCC5)CC4)cc3)nc2N)c1 [Example 72, 3-{4-Amino-2-[4-(4-pyrrolidin-1-yl-piperidin-1-yl)-phenylamino]-thiazole-5-carbonyl}-benzonitrile] | 17 | 702 | 2050 | 2500
8 | N#Cc1cccc(C(=O)c2sc(Nc3ccc(N4CCC(N5CCCC(O)C5)CC4)cc3)nc2N)c1 (stereo not shown) [Example 80, 3-{4-Amino-2-[4-(3-hydroxy-[1,4′]bipiperidinyl-1′-yl)-phenylamino]-thiazole-5-carbonyl}-benzonitrile] | 17 | 1370 | 2580 | 3490
9 | Nc1nc(Nc2ccc(N3CCC(N4CCCC(O)C4)CC3)cc2)sc1C(=O)c1cccc(O)c1 (stereo not shown) [Example 81, {4-Amino-2-[4-(3-hydroxy-[1,4′]bipiperidinyl-1′-yl)-phenylamino]-thiazol-5-yl}-(3-hydroxy-phenyl)-methanone] | 19 | 1610 | 3450 | 6020
10 | Nc1nc(Nc2ccc(N3CCC(N4CCCC4)CC3)cc2)sc1C(=O)c1cccc([N+](=O)[O-])c1 [Example 90, {4-Amino-2-[4-(4-pyrrolidin-1-yl-piperidin-1-yl)-phenylamino]-thiazol-5-yl}-(3-nitro-phenyl)-methanone] | 7 | 580 | 1670 | 2820
11 | Nc1nc(Nc2ccc(N3CCC(N4CCCC(O)C4)CC3)cc2)sc1C(=O)c1cccc([N+](=O)[O-])c1 (stereo not shown) [Example 91, {4-Amino-2-[4-(3-hydroxy-[1,4′]bipiperidinyl-1′-yl)-phenylamino]-thiazol-5-yl}-(3-nitro-phenyl)-methanone] | 9 | 710 | 1820 | 1640
12 | CN(C)C1CCN(c2ccc(Nc3nc(N)c(C(=O)c4cccc([N+](=O)[O-])c4)s3)cc2)CC1 [Example 92, {4-Amino-2-[4-(4-dimethylamino-piperidin-1-yl)-phenylamino]-thiazol-5-yl}-(3-nitro-phenyl)-methanone] | 15 | 870 | 1600 | 2900
13 | COc1ccc(C(=O)c2sc(Nc3ccc(N4CCC(N5CCCC5)CC4)cc3)nc2N)cc1[N+](=O)[O-] [Example 107, {4-Amino-2-[4-(4-pyrrolidin-1-yl-piperidin-1-yl)-phenylamino]-thiazol-5-yl}-(4-methoxy-3-nitro-phenyl)-methanone] | 38 | 1000 | 2390 | 3680
14 | COc1ccc(C(=O)c2sc(Nc3ccc(N4CCC(N5CCCCC5)CC4)cc3)nc2N)cc1[N+](=O)[O-] [Example 108, [4-Amino-2-(4-[1,4′]bipiperidinyl-1′-yl-phenylamino)-thiazol-5-yl]-(4-methoxy-3-nitro-phenyl)-methanone] | 34 | 1290 | 2610 | 996

Other lines, results leading:

Row | IC50 (human cyclin D1-CDK4) [nM] | IC50 (human cyclin B-CDK1) [nM] | IC50 (human cyclin E-CDK2) [nM] | IC50 [1] [nM] | SMILES
15 | 45 | 940 | 7270 | 1740 | COc1ccc(C(=O)c2sc(Nc3ccc(N4CCC(N(C)C)CC4)cc3)nc2N)cc1[N+](=O)[O-] [Example 113, {4-Amino-2-[4-(4-dimethylamino-piperidin-1-yl)-phenylamino]-thiazol-5-yl}-(4-methoxy-3-nitro-phenyl)-methanone]
16 | 12 | 2710 | 945 | 1370 | CCc1cccc(C(=O)c2sc(Nc3ccc(N4CCC(N5CCCC5)CC4)cc3)nc2N)c1 [Example 114, {4-Amino-2-[4-(4-pyrrolidin-1-yl-piperidin-1-yl)-phenylamino]-thiazol-5-yl}-(3-ethyl-phenyl)-methanone]
17 | 10 | 2800 | 1040 | 1240 | CCc1cccc(C(=O)c2sc(Nc3ccc(N4CCC(N(C)C)CC4)cc3)nc2N)c1 [Example 115, {4-Amino-2-[4-(4-dimethylamino-piperidin-1-yl)-phenylamino]-thiazol-5-yl}-(3-ethyl-phenyl)-methanone]
18 | 15 | 5590 | 750 | 2550 | CCc1cccc(C(=O)c2sc(Nc3ccc(N4CCC(N5CCOCC5)CC4)cc3)nc2N)c1 [Example 116, {4-Amino-2-[4-(4-morpholin-4-yl-piperidin-1-yl)-phenylamino]-thiazol-5-yl}-(3-ethyl-phenyl)-methanone]
19 | 9 | 3220 | 989 | 1310 | CCc1cccc(C(=O)c2sc(Nc3ccc(N4CCC(N5CCCCC5)CC4)cc3)nc2N)c1 [Example 117, [4-Amino-2-(4-[1,4′]bipiperidinyl-1′-yl-phenylamino)-thiazol-5-yl]-(3-ethyl-phenyl)-methanone]
20 | 31 | 1530 | 3240 | 4150 | CCOc1cccc(C(=O)c2sc(Nc3ccc(N4CCC(N5CCCC5)CC4)cc3)nc2N)c1 [Example 118, {4-Amino-2-[4-(4-pyrrolidin-1-yl-piperidin-1-yl)-phenylamino]-thiazol-5-yl}-(3-ethoxy-phenyl)-methanone]
21 | 11 | 1530 | 3240 | 3170 | Nc1nc(Nc2ccc(N3CCC(N4CCCC4)CC3)cc2)sc1C(=O)c1cccc(C2CC2)c1 [Example 119, {4-Amino-2-[4-(4-pyrrolidin-1-yl-piperidin-1-yl)-phenylamino]-thiazol-5-yl}-(3-cyclopropyl-phenyl)-methanone]
22 | 23 | 1870 | 2580 | 3910 | CN(C)C1CCN(c2ccc(Nc3nc(N)c(C(=O)c4cccc(C5CC5)c4)s3)cc2)CC1 [Example 120, {4-Amino-2-[4-(4-dimethylamino-piperidin-1-yl)-phenylamino]-thiazol-5-yl}-(3-cyclopropyl-phenyl)-methanone]
